According to US7794994B2 (Kemeta, LLC, priority 2001, dated 2010):
Where two headings read alike, the source gives them in different places.

What was measured:
[1] = system: S-ADH from Pseudomonas species 6307; conditions: cited from earlier work
[2] = target: T1, acetone carboxylase coupled to β-hydroxybutyrate dehydrogenase (Xanthobacter versatilis, UniProt Q8RM03+Q8RM04); experiment: Acetone carboxylase coupled to NADH oxidation spectrophotometric assay; format: biochemical, X. autotrophicus strain Py2; conditions: for activity as substrate and inhibition of acetone carboxylation activity: alternative compounds in coupled enzyme system
T1 construct: host or cells: X. autotrophicus strain Py2 (native organism; enzyme obtained from Prof; S. A. Ensign / purified as previously published)
T1 sequence (Q8RM03 1-776): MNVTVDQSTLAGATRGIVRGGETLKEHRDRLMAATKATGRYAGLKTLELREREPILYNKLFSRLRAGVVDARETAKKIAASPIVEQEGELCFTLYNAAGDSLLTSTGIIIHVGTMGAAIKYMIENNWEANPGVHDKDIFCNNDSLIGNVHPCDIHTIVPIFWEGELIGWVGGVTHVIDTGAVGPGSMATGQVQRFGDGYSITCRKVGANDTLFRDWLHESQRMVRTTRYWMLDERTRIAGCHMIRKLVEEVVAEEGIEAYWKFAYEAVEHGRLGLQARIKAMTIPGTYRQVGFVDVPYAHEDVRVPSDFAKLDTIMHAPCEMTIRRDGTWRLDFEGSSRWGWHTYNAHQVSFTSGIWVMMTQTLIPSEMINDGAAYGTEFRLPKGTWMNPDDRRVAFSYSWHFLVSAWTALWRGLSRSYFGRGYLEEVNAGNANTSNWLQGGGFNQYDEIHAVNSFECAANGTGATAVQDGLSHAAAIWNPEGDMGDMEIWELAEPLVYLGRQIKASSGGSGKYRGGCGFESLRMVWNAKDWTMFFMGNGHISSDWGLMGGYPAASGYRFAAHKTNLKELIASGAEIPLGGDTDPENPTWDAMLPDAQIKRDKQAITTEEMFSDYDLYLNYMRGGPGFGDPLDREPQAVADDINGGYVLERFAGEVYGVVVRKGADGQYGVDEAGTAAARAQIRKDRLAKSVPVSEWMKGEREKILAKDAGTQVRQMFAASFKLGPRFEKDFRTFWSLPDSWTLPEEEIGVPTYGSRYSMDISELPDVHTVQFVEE
T1 sequence (Q8RM04 1-717): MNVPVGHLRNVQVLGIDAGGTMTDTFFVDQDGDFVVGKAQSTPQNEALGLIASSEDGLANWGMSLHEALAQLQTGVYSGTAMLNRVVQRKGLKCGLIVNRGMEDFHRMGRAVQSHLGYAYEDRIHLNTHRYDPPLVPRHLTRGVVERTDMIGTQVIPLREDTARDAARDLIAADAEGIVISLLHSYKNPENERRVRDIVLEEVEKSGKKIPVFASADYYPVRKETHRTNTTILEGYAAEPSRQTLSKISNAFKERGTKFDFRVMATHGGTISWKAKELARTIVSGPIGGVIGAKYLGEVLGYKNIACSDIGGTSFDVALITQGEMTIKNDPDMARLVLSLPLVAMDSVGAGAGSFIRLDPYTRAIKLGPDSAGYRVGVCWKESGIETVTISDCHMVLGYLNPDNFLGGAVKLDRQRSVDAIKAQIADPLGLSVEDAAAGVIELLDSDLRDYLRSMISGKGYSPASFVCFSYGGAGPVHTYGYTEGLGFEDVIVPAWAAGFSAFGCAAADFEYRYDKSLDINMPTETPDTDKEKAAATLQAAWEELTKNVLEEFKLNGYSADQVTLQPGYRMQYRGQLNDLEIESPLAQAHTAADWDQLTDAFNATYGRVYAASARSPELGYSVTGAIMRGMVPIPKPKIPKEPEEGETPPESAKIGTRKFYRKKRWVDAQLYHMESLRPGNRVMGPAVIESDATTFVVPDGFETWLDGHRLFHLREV
T1 sequence (Q8RM02 2-168 partner limits assumed): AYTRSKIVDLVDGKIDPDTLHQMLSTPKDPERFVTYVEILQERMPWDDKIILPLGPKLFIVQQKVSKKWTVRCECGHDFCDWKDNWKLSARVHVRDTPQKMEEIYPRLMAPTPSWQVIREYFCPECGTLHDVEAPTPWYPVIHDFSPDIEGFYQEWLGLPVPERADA
Description: Assays were performed in 2 mL (1 cm path length) quartz cuvettes that had been modified by fusing a serum bottle-style quartz top (7×13 mm at mouth), allowing the cuvettes to be sealed with a red rubber serum stopper. […] The addition of […] (3 U) and NADH (0.2 mM) allowed acetoacetate formation to be coupled to the oxidation of NADH. […] The reaction was monitored by measuring the decrease in absorbance at 340 nm (∈340 of 6.22 mM^−·cm^−1 for NADH) over time in an Agilent Technologies (Palo Alto, Calif.) model 8453 UV-Visible Spectroscopy System containing a thermostat-controlled cell holder at 30° C.

[3] = system: secondary alcohol dehydrogenase from R. rhodochrous PNKb1; conditions: R. rhodochrous PNKb1 enzyme; cited from earlier work
S-ADH from T. brockii = target: T2, S-ADH from T. brockii (Thermoanaerobacter brockii, UniProt P14941); experiment: S-ADH spectrophotometric assay, T. brockii S-ADH; format: biochemical, Thermoanaerobium brockii; conditions: for Relative S-ADH Activity (%) T. brockii, alcohol oxidation: alcohol oxidation rates, pH 7.6, 2.5 mM substrate, 0.2 mM NADP+, 2-propanol = 100, NA = no activity detected; for Relative S-ADH Activity (%) T. brockii, ketone reduction: ketone reduction rates, pH 6.2, 2.5 mM substrate, 0.2 mM NADPH, acetone = 100
T2 sequence (P14941 1-352): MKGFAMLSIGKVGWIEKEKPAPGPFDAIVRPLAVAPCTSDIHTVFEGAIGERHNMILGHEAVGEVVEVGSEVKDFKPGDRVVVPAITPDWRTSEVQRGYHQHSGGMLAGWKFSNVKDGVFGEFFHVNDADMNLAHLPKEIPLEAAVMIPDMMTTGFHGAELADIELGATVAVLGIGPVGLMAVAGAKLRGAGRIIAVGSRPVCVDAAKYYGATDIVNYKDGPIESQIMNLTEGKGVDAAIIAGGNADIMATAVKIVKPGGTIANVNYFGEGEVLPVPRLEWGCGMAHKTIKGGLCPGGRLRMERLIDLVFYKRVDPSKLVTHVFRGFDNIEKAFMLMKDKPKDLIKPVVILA
Description: […] Assays were pre-incubated for 1.5 min. at 30° C. with all assay components except substrate. Assays were initiated by addition of substrate (2.5 mM) and monitored over time by measuring the change in absorbance at 340 nm (∈340 of 6.22 mM^−1·cm^−1 for NADH).

[4] = target: T3, acetone carboxylase from X. autotrophicus strain Py2 (Xanthobacter versatilis, UniProt Q8RM03+Q8RM04); conditions: cited from earlier work
T3 sequence (Q8RM03 1-776): T1 sequence (Q8RM03 1-776)
T3 sequence (Q8RM04 1-717): T1 sequence (Q8RM04 1-717)
T3 sequence (Q8RM02 2-168 partner limits assumed): T1 sequence (Q8RM02 2-168 partner limits assumed)

[5] = as reported by NIST; cited from earlier work
[6] = system: acetone carboxylase from Rhodobacter capsulatus strain B10; conditions: cited from earlier work

Compound: CCO [Ethanol]
- inhibition by ethanol ([1]; in the presence of 10 mM ethanol): 0%
- inhibition by ethanol ([1]; in the presence of 100 mM ethanol): 30%
- effect on rate of NADH oxidation (inhibition) ([2]; addition of ethanol (10 mM)): no decrease in the rate was observed

Compound: CC(C)O [2-Propanol]
- Km [3]: 12 mM
- Relative S-ADH Activity (%) T. brockii, alcohol oxidation (S-ADH from T. brockii): 100%
- activity as substrate and inhibition of acetone carboxylation activity [2]: not active nor did they inhibit acetone carboxylation activity

Compound: CCCO [1-Propanol]
- Km [3]: 18 mM
- activity as substrate and inhibition of acetone carboxylation activity [2]: not active nor did they inhibit acetone carboxylation activity

Compound: CCC(C)=O [2-Butanone]
- Relative S-ADH Activity (%) T. brockii, ketone reduction (S-ADH from T. brockii): 67%
- rate relative to acetone using the coupled enzyme system [2]: 3 to 4%
- carboxylation rate relative to that of acetone [4]: 40%

Compound: CCC(C)O (stereo not shown) [2-Butanol]
- Relative S-ADH Activity (%) T. brockii, alcohol oxidation (S-ADH from T. brockii): 121%
- activity as substrate and inhibition of acetone carboxylation activity [2]: not active nor did they inhibit acetone carboxylation activity

Compound: CC(C)=O [Acetone, acetone]
- Relative S-ADH Activity (%) T. brockii, ketone reduction (S-ADH from T. brockii): 100%
- Henry's Law constant [5]: 24 M·atm^−1
- Vmax [4]: 0.206 μmol acetone consumed·min^−1·mg^−1 protein
- Km ([4]; read-out: apparent Km): 0.0078 mM
- Km [6]: 0.0082 mM
- Vmax [6]: 0.291 μmol acetone consumed·min^−1mg^−1 protein
